In general, IC50 refers to the point on the concentration scale where inhibition reaches its midpoint. Low readings indicate greater potency, high ones weaker potency. One may read the Ki as a dissociation constant, usually derived from enzyme kinetics or from competition with a known ligand. A high value points to a looser hold on the target. In general, pKb refers to the Kb on a negative log10 scale, so that one unit is a factor of ten. A higher pKb goes with a low Kb. In general, ED50 refers to the dose that gives a 50% effect, or the effect in half of the subjects. For orientation: Cmax means the peak of the concentration-time curve. The term half-life denotes the time in which the quantity being followed falls by half. In general, bioavailability refers to dose-corrected exposure relative to a reference, in per cent. Low readings indicate little systemic uptake, high ones much systemic uptake.

29 compounds from ChEMBL document CHEMBL3102719, “Ligands of the neuropeptide Y Y2 receptor” (Bioorg Med Chem Lett, 2014) can be followed below.

Data set [1] deals with T1, Neuropeptide Y receptor type 2 (Homo sapiens, UniProt P49146).
T1 sequence (P49146 whole entry): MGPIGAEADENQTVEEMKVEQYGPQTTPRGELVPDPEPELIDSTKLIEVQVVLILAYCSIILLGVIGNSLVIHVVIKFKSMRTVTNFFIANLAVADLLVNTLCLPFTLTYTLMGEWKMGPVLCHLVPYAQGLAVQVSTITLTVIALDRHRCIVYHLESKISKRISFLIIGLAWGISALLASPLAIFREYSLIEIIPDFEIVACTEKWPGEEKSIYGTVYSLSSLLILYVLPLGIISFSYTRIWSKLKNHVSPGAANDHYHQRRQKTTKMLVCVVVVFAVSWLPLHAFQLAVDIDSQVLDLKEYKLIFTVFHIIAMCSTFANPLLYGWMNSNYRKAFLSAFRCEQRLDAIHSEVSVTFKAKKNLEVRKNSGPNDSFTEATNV
The data set can be described thus: Displacement of [125I]-PYY from human NPYY2 receptor. (In a radioligand displacement assay an active substance lowers the binding of a labelled ligand.)

The target of data set [2] is T2, Neuropeptide Y receptor type 5 (Homo sapiens, UniProt Q15761).
T2 sequence (Q15761 whole entry): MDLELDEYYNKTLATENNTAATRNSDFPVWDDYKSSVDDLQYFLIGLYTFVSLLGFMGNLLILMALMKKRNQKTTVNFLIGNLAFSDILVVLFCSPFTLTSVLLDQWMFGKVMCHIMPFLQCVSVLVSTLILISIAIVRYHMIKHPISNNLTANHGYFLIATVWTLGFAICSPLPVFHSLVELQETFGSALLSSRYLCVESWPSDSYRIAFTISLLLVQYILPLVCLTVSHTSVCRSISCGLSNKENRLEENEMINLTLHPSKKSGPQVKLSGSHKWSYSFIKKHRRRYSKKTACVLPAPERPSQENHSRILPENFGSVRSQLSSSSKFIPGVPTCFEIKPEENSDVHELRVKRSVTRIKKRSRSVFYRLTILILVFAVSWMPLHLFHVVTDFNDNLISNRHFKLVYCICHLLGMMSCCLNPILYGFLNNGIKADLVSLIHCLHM
Put plainly: Binding affinity to NPYY5 receptor (unknown origin).

For data set [3], the target named is T1, Neuropeptide Y receptor type 2. The data set can be described thus: Binding affinity to NPYY2 receptor (unknown origin).
For data set [4], the target named is T3, Neuropeptide Y receptor type 2 (Homo sapiens) (UniProt P49146).
T3 sequence (whole entry): T1 sequence (P49146 whole entry)
The data set can be described thus: Antagonist activity at NPYY2 receptor (unknown origin).

The target in data set [5] is Mu-type opioid receptor (Homo sapiens, UniProt P35372). Put plainly: Binding affinity to mu opioid receptor (unknown origin).
The target in data set [6] is Kappa-type opioid receptor (Homo sapiens, UniProt P41145). Put plainly: Binding affinity to kappa opioid receptor (unknown origin).
For data set [7], the target named is T4, Alpha-1A adrenergic receptor (Homo sapiens, UniProt P35348).
T4 sequence (P35348 whole entry): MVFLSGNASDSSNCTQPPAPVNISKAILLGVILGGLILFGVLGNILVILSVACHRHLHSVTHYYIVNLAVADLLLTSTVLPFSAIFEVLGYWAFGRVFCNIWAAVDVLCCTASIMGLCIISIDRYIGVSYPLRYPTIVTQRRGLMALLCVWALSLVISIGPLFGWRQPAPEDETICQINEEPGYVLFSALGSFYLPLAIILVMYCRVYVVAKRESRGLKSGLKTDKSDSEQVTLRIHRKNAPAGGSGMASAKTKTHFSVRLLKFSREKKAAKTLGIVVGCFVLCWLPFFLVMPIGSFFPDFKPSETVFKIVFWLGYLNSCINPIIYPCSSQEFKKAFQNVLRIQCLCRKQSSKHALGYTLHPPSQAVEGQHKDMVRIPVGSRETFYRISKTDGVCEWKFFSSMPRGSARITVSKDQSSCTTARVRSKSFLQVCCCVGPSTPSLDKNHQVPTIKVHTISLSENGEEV
Put plainly: Binding affinity to adrenergic alpha1A receptor (unknown origin).

Data set [8] has as its system Mus musculus. Put plainly: Anticonvulsant activity in ip dosed mouse assessed as protection against 6 Hz psychomotor seizure. In kind it is functional.
For data set [9], the target named is T1, Neuropeptide Y receptor type 2. The data set can be described thus: Displacement of [125I]-PYY from NPYY2 receptor (unknown origin).
The target is the same in data set [10]. Put plainly: Binding affinity to NPYY2 receptor (unknown origin) preincubated for 20 mins.
The species entered for data set [11] is Homo sapiens. Put plainly: Selectivity ratio of NPYY1 receptor (unknown origin) to NPYY2 receptor (unknown origin).
Data set [12] is described as follows: Cmax in rat at 10 mg/kg, sc. As to conditions: in vivo. It is filed as ADME, organism-based. Also on record: dose 10 mg/kg, route subcutaneous.
The species named for data set [13] is Homo sapiens. The data set can be described thus: Selectivity ratio of NPYY4 receptor (unknown origin) to NPYY2 receptor (unknown origin).
The species named for data set [14] is Homo sapiens. The data set can be described thus: Selectivity ratio of NPYY5 receptor (unknown origin) to NPYY2 receptor (unknown origin).
Data set [15] is described as follows: Half life in rat at 10 mg/kg, sc. In kind it is ADME, organism-based. Details: dose 10 mg/kg, route subcutaneous. The following applies: in vivo.
Data set [16] in a line: Oral bioavailability in rat at 10 mg/kg. It is filed as ADME, organism-based. The following applies: in vivo.
Data set [17] can be described thus: Bioavailability in rat at 10 mg/kg, sc. In kind it is ADME, organism-based. The following applies: in vivo.

Non-standard residues stand in square brackets, D forms with d. Residues, ends and D or L forms follow the SMILES beside them. *: point of attachment. Palmitoyl = CCCCCCCCCCCCCCCC(=O)*; Ahx = NCCCCCC(=O)O

Mu-type opioid receptor, sequence (P35372 whole entry): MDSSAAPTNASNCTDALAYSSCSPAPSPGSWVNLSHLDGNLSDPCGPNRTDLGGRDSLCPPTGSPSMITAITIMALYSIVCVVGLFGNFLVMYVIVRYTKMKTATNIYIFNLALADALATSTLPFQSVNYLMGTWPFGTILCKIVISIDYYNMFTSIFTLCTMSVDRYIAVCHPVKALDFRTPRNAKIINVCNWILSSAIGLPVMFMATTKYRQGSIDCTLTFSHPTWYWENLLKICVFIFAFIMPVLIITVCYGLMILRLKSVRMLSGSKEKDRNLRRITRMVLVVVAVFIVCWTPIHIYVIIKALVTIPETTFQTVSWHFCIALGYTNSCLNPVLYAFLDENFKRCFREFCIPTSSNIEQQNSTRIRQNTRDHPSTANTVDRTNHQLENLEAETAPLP
Kappa-type opioid receptor, sequence (P41145 whole entry): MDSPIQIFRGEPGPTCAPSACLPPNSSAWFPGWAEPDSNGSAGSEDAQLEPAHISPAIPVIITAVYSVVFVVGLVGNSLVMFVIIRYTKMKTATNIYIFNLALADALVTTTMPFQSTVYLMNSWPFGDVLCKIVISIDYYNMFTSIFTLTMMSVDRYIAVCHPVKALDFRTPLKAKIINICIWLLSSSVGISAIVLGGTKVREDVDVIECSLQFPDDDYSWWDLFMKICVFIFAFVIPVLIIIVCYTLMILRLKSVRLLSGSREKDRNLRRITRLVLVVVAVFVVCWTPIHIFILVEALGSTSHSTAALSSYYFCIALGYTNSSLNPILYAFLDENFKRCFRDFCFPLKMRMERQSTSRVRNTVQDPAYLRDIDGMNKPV

On to `CCC(CC)C(=O)Nc1ccc(N2CCN(C(C(=O)N(CC)CC)c3ccc(O)cc3)CC2)c(F)c1` (stereo not given), for which, in data set [1], the IC50 came out at 100 nM.
The same measure, in the same setting: to `CC(=O)N1CCc2ccc(N(C/C=C\c3ccccc3)C3CCN(Cc4ccccc4)CC3)cc21` belongs 22000 nM.
For the compound Ac-LRHYLNLLTRQRY-NH2, the Ki in [2] was more than 1000 nM.
The compound `CCc1nc(C(c2ccccc2)N2CCN(c3ccc(NC(=O)C(CC)CC)cc3F)CC2)no1` (stereo not given) gave a concentration for half-maximal inhibition (IC50) in data set [1] of 150 nM.
Consider `CCCCCCCCCCCCCCCC(=O)NCCCC[C@H](NC(=O)[C@H](CCCCN)NC(=O)[C@H](CCCCN)NC(=O)[C@H](Cc1ccc(O)cc1)NC(C)=O)C(=O)NCCCCCC(=O)N[C@@H](C)C(=O)N[C@@H](CCCN=C(N)N)C(=O)N[C@@H](Cc1cnc[nH]1)C(=O)N[C@@H](Cc1ccc(O)cc1)C(=O)N[C@H](C(=O)N[C@@H](CC(N)=O)C(=O)N[C@@H](CC(C)C)C(=O)N[C@H](C(=O)N[C@H](C(=O)N[C@@H](CCCN=C(N)N)C(=O)N[C@@H](CCC(N)=O)C(=O)N[C@@H](CCCN=C(N)N)C(=O)N[C@@H](Cc1ccc(O)cc1)C(N)=O)[C@@H](C)O)[C@@H](C)CC)[C@@H](C)CC` (Ac-YKKK(Palmitoyl)[Ahx]ARHYINLITRQRY-NH2), for which, in data set [3], the affinity, expressed as Ki, was 26.1 nM.
In turn, `CCC(CC)C(=O)Nc1ccc(N2CCN(C(c3ccccc3)c3cc(C)no3)CC2)c(F)c1` (stereo not given) showed a pKb in data set [4] of 7.5. Besides, in [1], the 50% inhibitory concentration (IC50) came out at 38 nM.
In turn, `CCC(CC)C(=O)Nc1ccc(N2CCN(C(c3ccccc3)c3ncno3)CC2)c(F)c1` (stereo not given) gave an IC50 in [1] of 240 nM.
Still for that read-out and setting: the figure for `CCC(CC)C(=O)Nc1ccc(N2CCN(C(c3ccccc3)c3nc(C(C)C)no3)CC2)c(F)c1` (stereo not given) is 170 nM.
`CCC(CC)C(=O)Nc1ccc(N2CCN(C(c3ccccc3)c3ncccn3)CC2)c(F)c1` (stereo not given) came in with an IC50 in data set [1] of 33 nM.
`CCC(CC)C(=O)Nc1ccc(N2CCN(C(c3ccccc3)C3CCOC3)CC2)c(F)c1` (stereo not given) showed a pKb in [4] of 7.2. The compound further showed an IC50 in data set [1] of 34 nM.
In the case of `CCN(CC)C(=O)C(c1ccccc1)N1CCN(c2ccc(-c3c(C)noc3C)cc2F)CC1` (stereo not given), the IC50 in [1] worked out at 10000 nM.
On the same count and under the same terms, the figure for `CCN(CC)C(=O)C(c1ccccc1)N1CCN(c2ccc(NC(=O)c3c(C)cnn3C(C)(C)C)cc2F)CC1` (stereo not given) is 300 nM; for `CCN(CC)C(=O)C(c1ccccc1)N1CCN(c2ccc(-c3cc(=O)n(C(C)C)[nH]3)cc2F)CC1` (stereo not given) it is 340 nM.
In the case of `CCc1noc(C(c2ccccc2)N2CCN(c3ccc(NC(=O)C(CC)CC)cc3F)CC2)n1` (stereo not given), the negative logarithm of the Kb (pKb) in data set [4] came out at 7.45.
Turning to `N=C(N)NCCCC(NC(=O)CC1(CC(=O)N2CCN(C3c4ccccc4NC(=O)c4ccccc43)CC2)CCCC1)C(=O)NCCn1c(=O)n(-c2ccccc2)n(-c2ccccc2)c1=O` (single isomer, unassigned), the Ki is 323 nM in data set [5], 948 nM in data set [6] and 360 nM in [7].
Take `CCN(CC)C(=O)C(c1ccccc1)N1CCN(c2ccc(-c3cccnc3)cc2F)CC1` (stereo not given): the IC50 in data set [1] amounted to 740 nM.
On the same count and under the same terms, the figure for `CCC(CC)C(=O)Nc1ccc(N2CCN(C(c3ccccc3)c3nc(-c4ccccc4)no3)CC2)c(F)c1` (stereo not given) is 720 nM.
For the compound `CCCCCCCCCCCCCCCC(=O)NCCCC[C@H](NC(=O)[C@H](CCCCN)NC(=O)[C@H](CCCCN)NC(=O)[C@H](Cc1ccc(O)cc1)NC(C)=O)C(=O)NCCCCCC(=O)N[C@@H](C)C(=O)N[C@@H](CCCNC(=N)N)C(=O)N[C@@H](Cc1cnc[nH]1)C(=O)N[C@@H](Cc1ccc(O)cc1)C(=O)N[C@H](C(=O)N[C@@H](CC(N)=O)C(=O)N[C@@H](CC(C)C)C(=O)N[C@H](C(=O)N[C@H](C(=O)N[C@@H](CCCNC(=N)N)C(=O)N[C@@H](CCC(N)=O)C(=O)N[C@@H](CCCNC(=N)N)C(=O)N[C@@H](Cc1ccc(O)cc1)C(N)=O)[C@@H](C)O)[C@@H](C)CC)[C@@H](C)CC` (Ac-YKKK(Palmitoyl)[Ahx]ARHYINLITRQRY-NH2), the 50% effective dose (ED50) in [8] was 1.1 mg/kg.
`CC(=O)N1CCc2ccc(N(CC#Cc3ccccc3)C3CCN(Cc4ccccc4)CC3)cc21`: the IC50 in data set [1] turned out to be 9200 nM.
In [4], `CCC(CC)C(=O)Nc1ccc(N2CCN(C(c3ccccc3)c3nc(C)no3)CC2)c(F)c1` (stereo not given) had a negative-log Kb (pKb) of 7.4.
Consider `CCC(CC)C(=O)Nc1ccc(N2CCN(C(c3ccccc3)c3nnc(C(C)C)o3)CC2)c(F)c1` (stereo not given), for which the IC50 in data set [1] was found to be 290 nM.
Same read-out and setting: the figure for `CCN(CC)C(=O)C(c1ccccc1)C1CCN(c2ccc(NC(=O)C3CCOC3)cc2F)CC1` (stereo not given) is 25 nM.
In [9], `CN(C)CCCN(C(=O)c1cc2ccccc2s1)c1ccccc1Cc1ccccc1` gave an IC50 of 450 nM.
Compound `CCN(CC)C(=O)C(c1ccccc1)N1CCN(c2ccc(NC(=O)c3c(C)cnn3CC)cc2F)CC1` (stereo not given) registered a half-maximal inhibitory concentration (IC50) in data set [1] of 35 nM.
Same read-out and setting: the figure for `CCC(CC)C(=O)Nc1ccc(N2CCN(C(C(=O)N(CC)CC)c3ccc(Cl)cc3)CC2)c(F)c1` (stereo not given) is 100 nM.
Regarding `CN(C)CCCN(C(=O)[C@H]1C[C@@H]1c1ccccc1)c1ccccc1SCc1ccccc1` (relative stereo), the IC50 in data set [9] stood at 3700 nM.
Compound `CCC(=O)NCCNC(=O)CCCC(=O)NC(=N)NCCC[C@H](NC(=O)CC1(CC(=O)N2CCN(C3c4ccccc4NC(=O)c4ccccc43)CC2)CCCC1)C(=O)NCCn1c(=O)n(-c2ccccc2)n(-c2ccccc2)c1=O` (stereo not given in full) returned a Ki in data set [10] of 9.9 nM.
`CCN(CC)C(=O)C(c1ccccc1)N1CCN(c2ccc(NC(=O)c3ccccc3-c3cccnc3)cc2F)CC1` (stereo not given): the Selectivity ratio in data set [11], in [13] and in data set [14] was more than 100 in each case. The same compound gave a negative logarithm of the Kb (pKb) in data set [4] of 8.04. Further, the concentration in data set [12] peaked (Cmax) at 4.35 µM. The same compound showed a half-life in [15] of 49.8 min. Also, the bioavailability in [16] is 6%; in data set [17] it was 100%.
In turn, `CCC(CC)C(=O)Nc1ccc(N2CCN(C(c3cccc(F)c3)c3ncco3)CC2)c(C#N)c1` (stereo not given) had a negative logarithm of the Kb (pKb) in data set [4] of 7.9.
